Numbering of substitutions follows the chain as printed.

The target of one test is T1, WT EAG1 channels (Mus musculus, UniProt Q60603).
T1 construct: expressed in transfected cells; host or cells: Xenopus laevis oocytes injected with cRNA
T1 sequence (Q60603 1-989): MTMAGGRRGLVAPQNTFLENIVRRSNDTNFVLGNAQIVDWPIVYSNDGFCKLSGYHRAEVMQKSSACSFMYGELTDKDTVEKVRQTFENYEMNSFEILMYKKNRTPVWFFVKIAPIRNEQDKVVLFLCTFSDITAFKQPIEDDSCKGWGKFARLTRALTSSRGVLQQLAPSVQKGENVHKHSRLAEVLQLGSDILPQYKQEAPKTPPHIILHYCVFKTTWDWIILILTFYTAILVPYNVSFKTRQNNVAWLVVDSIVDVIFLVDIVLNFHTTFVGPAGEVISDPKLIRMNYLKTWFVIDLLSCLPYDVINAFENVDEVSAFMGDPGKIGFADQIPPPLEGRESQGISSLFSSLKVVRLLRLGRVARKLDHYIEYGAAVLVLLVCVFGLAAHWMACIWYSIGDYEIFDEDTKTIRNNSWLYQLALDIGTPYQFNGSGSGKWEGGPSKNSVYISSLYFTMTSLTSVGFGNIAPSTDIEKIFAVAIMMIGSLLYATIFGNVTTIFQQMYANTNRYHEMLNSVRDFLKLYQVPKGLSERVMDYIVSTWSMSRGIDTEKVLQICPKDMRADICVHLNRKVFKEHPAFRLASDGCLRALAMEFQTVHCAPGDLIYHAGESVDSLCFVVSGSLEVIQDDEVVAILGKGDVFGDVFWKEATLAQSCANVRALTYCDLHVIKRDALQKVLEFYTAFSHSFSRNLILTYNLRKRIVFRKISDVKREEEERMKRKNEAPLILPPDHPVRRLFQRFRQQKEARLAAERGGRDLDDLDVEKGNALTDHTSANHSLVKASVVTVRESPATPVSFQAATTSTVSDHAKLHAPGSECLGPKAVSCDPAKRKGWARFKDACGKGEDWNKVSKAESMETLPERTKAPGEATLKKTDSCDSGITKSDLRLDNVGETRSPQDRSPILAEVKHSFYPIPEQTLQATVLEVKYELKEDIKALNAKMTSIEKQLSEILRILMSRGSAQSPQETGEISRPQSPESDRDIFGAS
The test can be described thus: TEVC recording of EAG1 currents in Xenopus oocytes, imipramine inhibition, WT channel. To be noted: IC50 for imipramine inhibition at +50 mV. It counts as cell-based. An excerpt: (§1) The cDNA encoding wild-type (WT) mouse EAG1 channels in pGH19 vector was kindly provided by G. Robertson (University of Wisconsin-Madison, Madison, WI). The mutant ΔPAS EAG1 channel in pGH19 with the deletion of the PAS domain residues 2 to 130 was generated by Bio Basic Inc and verified by DNA sequencing (Genewiz). Mutant EAG1 channels with single amino acid substitutions were generated by Genewiz and verified by DNA sequencing. cRNA was transcribed using the T7 mMessage mMachine kit (Thermo Fisher Scientific). Defolliculated Xenopus laevis oocytes were purchased from Ecocyte Bioscience or Xenopus1 and injected with the cRNA using a Nanoinject II oocyte injector (Drummond).
(§2) For EAG1 current recordings, oocytes were placed into a handmade chamber containing a bath solution for the current recording. The currents were recorded using a TEVC technique with OC-725C amplifier (Warner Instruments) and pClamp11 software (Molecular Devices). The signals were digitized using Digidata 1550 (Molecular Devices). Patch pipettes were pulled from borosilicate glass and had resistances of 0.7 to 1.5 MΩ. The recording (bath) solution contained 96 mM NaCl, 4 mM KCl, 0.1 mM CaCl2, 1.8 mM MgCl2, and 5 mM HEPES, pH 7.5. The pipette solution contained 3 M KCl. […]

Test [1] concerns the target T2, R84G mutant EAG1 channels (Mus musculus, UniProt Q60603, R84G).
T2 construct: expressed in transfected cells; host or cells: Xenopus laevis oocytes injected with cRNA
T2 sequence (Q60603 1-989 R84G): T1 sequence (Q60603 1-989) with R84G
The test can be described thus: TEVC recording, imipramine inhibition, R84G mutant. It counts as cell-based. To be noted: R84G mutant EAG1 channel, +50 mV.
From the text: as §1, §2

Regarding `CN(C)CCCN1c2ccccc2CCc2ccccc21` [imipramine], the IC50 against WT EAG1 channels amounted to 58.1 ± 9.7 µM; in test [1], 92.6 ± 2.7 µM.

Usually IC50 stands for the concentration at which inhibition is half-maximal. A lower IC50 goes with greater potency in that assay.

The record behind these values is PMC10687071 (The Journal of Biological Chemistry, 2023).
